Reference: patent US20230069712A1, “COMPOUNDS FOR THE INDUCTION OF ANTIGEN-SPECIFIC IMMUNE TOLERANCE” (Anokion SA, priority 2019, published 2023)
No end group written: not given here.

System: multiple sclerosis pathology (EAE disease)
Assay: Mouse experimental autoimmune encephalomyelitis (EAE) model
Format: in vivo, mice
Conditions: intravenous injection on day 0, 3, and 6; adoptive transfer of MOG35-55-reactive T cells
From the text: Myelin oligodendrocyte glycoprotein (MOG) 30-60 is a fragment of an autoantigen that is associated with multiple sclerosis that is used herein as a non-limiting example of an immunogenic fragment of MOG. […] To induce multiple sclerosis pathology (EAE disease), recipient mice were adoptively transferred on day 0 with MOG35-55-reactive T cells obtained from a separate, previously-vaccinated donor mouse. On day 0, 3, and 6, mice received via intravenous injection of either MOG30-60 peptide, MOG-30-60 peptide chemically conjugated to pGal (LT-MOG-30-60), or saline; an additional control group received administrations of a monoclonal antibody that binds VLA-4 (integrin alpha 4 beta 1). Multiple sclerosis pathology was assessed and scored daily by a pharmacology expert blinded to group identities. […] It shall be appreciated that, according to additional embodiments disclosed herein, other immunogenic fragments of MOG are effective in inducing tolerance to MOG, and thus treatment of MS.

Substance | protection from multiple sclerosis pathology (EAE disease), daily score
MOG30-60: Myelin oligodendrocyte glycoprotein (MOG) 30-60 peptide, SEQ ID NO: 30, administered alone (KNATGMEVGWYRSPFSRVVHLYRNGKDQDAE; MOG 30-60; listed as Homo sapiens) | not substantively protected from disease
pGal-MOG30-60: MOG-30-60 peptide chemically conjugated to pGal (e.g., Polymer B) (KNATGMEVGWYRSPFSRVVHLYRNGKDQDAE; also: chemically conjugated to pGal polymer (e.g. Polymer B), site not given here; UniProt Q61885 58-88, looked up, fragment) | protected from multiple sclerosis pathology (EAE disease)
